Like-named read-outs stand apart in the source and are kept apart here.
Tests used:
[1] = system: 3D cardiac tissues (hiPSC-derived cardiomyocytes)
Procedure: To generate 3D cardiac tissues, 12-day differentiated cardiac cells were detached from culture wells using accutase (Stem Cell Technologies), suspended in RPMI-B27medium containing Y-27632 (5 uM) to reach a final concentration of 1.5×10^8 cells/mL. Casting molds were prepared by placing the tissue holder and PDMS molds in 96-well culture plates. For each tissue, 12 μL cell suspension was loaded into the cell loading channel. For florescence-labeled cardiac tissue, 12 μL cell suspension was mixed briefly with ˜20 FluoSpheres polystyrene microspheres (diameter 15 μm, Life Technologies) and pipetted into cell loading channels. The 96-well plates were placed in a 37° C., 5% CO2 culture incubator for 2 hours. 0.20 mL of cell culture medium was then added per well for continued culture. After one day of culture, media was changed to RPMI-B27 medium without Y-27632 and changed every day.
Cardiac tissue contractility was assessed based on the recorded video using IMARIS software. The cardiac tissues were labeled with fluorescence beads, as described above. The video was exported as image stacks for IMARIS tracking analysis. The software can identify the contraction and relaxation events based on the relative positions of the florescence beads during the entire tissue beating sequence. These positions were recorded, and the relevant contractility parameters were calculated from the temporal change of these positions.
Toxicity studies were performed using a Zeiss fluorescence microscope, within a closed environment chamber maintaining constant 37° C. temperature and 5% CO2 humidified air for long time lapse imaging of live cells. An experiment design program in Zen software was used to create an automatic measurement program. For chronic drug response, videos were recorded for each well at every 1 h interval.
The videos were recorded at cumulative concentrations 1 hr before measurement, and processed using IMARIS software.

Cardiac spheroids = experiment: Toxicity assay based on ATP activity (CellTiter-Glo 3D cell viability assay); design: species or system human; conditions: 1 hr incubation, normalized to drug-free controls
Procedure: Cardiac spheroids were incubated with various concentrations of compounds dissolved in culture medium for 1 hr, and cell viability was subsequently measured by CellTiter-Glo® 3D cell viability assay (Promega), which determines the number of viable cells in culture based on quantitation of the ATP present. Data is normalized to drug-free controls. Data from the same treatment on 3 occasions were averaged to represent the mean ATP measurement.

[2] = system: iPSC-derived cardiomyocytes monolayer; assay type: cell-based; conditions: human; for Time at which significant reduced beating speed was observed / Time of total arrest of beating: 2 days
Procedure: The 12-day differentiated cardiomyocytes were detached using accutase and suspended in RPMI-B27 medium containing Y-27632 (5 uM). The cell suspension was mixed with FluoSpheres polystyrene microspheres, and loaded into matrigel or fibronectin coated 384-well microplate (Greiner) or 96-well tissue culture plates at 0.25˜0.30 *10^6cells/50˜100 microspheres/cm^2.
The videos were recorded for each well at every 1 hr interval and processed using IMARIS software.

N[C@@H]1[C@H]2CN(c3nc4c(cc3F)c(=O)c(C(=O)O)cn4-c3ccc(F)cc3F)C[C@@H]12 [trovafloxacin]
Concentration at which complete arrest of contraction was observed ([1]; human, 1 h): 100 µM

CCS(=O)(=O)N(C)[C@H]1c2cc(C#N)ccc2OC(C)(C)[C@@H]1O (racemic) [chromanol 293B]
Concentration at which complete arrest of contraction was observed [1]: 200 µM

CN(CCOc1ccc(CC2SC(=O)NC2=O)cc1)c1ccccn1 (stereo not shown) [rosiglitazone, Rosiglitazone]
Concentration at which complete arrest of contraction was observed ([1]; human, 1 h): 50 µM

CN(C)C(=N)N=C(N)N [metformin]
Change in beating rates [1]: less pronounced changes in beating rates

CC1(C)S[C@@H]2[C@H](NC(=O)[C@H](N)c3ccccc3)C(=O)N2[C@H]1C(=O)O [ampicillin, Ampicillin]
Concentration up to which negligible / no significant toxicity was detected (ATP-based cell viability) (Cardiac spheroids): ≤ 10000 µM
Concentration up to which negligible beating rate changes were observed ([1]; human, 1 h): up to 1 mM

C=C[C@H]1C[N@@]2CC[C@H]1C[C@@H]2[C@@H](O)c1ccnc2ccc(OC)cc12 [quinidine]
Concentration at which complete arrest of contraction was observed ([1]; human, 1 h): 10 µM

Cc1c(C)c2c(c(C)c1O)CCC(C)(COc1ccc(CC3SC(=O)NC3=O)cc1)O2 (stereo not shown) [troglitazone]
Concentration at which complete arrest of contraction was observed ([1]; human, 1 h): 50 µM

N=C(N)c1ccc(OCCCCCOc2ccc(C(=N)N)cc2)cc1 [pentamidine, Pentamidine]
Concentration at which complete arrest of beating was observed ([2]; 1 h): 100 µM
Concentration showing pronounced changes in contraction speed ([2]; 1 h): 10 µM
Time at which significant reduced beating speed was observed ([2]; 5 μM): 28 h
Time of total arrest of beating ([2]; 5 μM): 44 h
Time at which significant reduced beating speed was observed ([2]; 10 μM): 4 h
Time of total arrest of beating ([2]; 10 μM): 30 h

CC[C@H]1OC(=O)[C@H](C)[C@@H](O[C@H]2C[C@@](C)(OC)[C@@H](O)[C@H](C)O2)[C@H](C)[C@@H](O[C@@H]2O[C@H](C)C[C@H](N(C)C)[C@H]2O)[C@](C)(O)C[C@@H](C)C(=O)[C@H](C)[C@@H](O)[C@]1(C)O [erythromycin]
Concentration up to which negligible / no significant toxicity was detected (ATP-based cell viability) (Cardiac spheroids): up to 500 μM
Concentration at which complete arrest of contraction was observed ([1]; human, 1 h): 10 µM
